In patent publication US20150111896A1, “HEMATOPOIETIC PROTECTION AGAINST CHEMOTHERAPEUTIC COMPOUNDS USING SELECTIVE CYCLIN-DEPENDENT KINASE 4/6 INHIBITORS” (The University of North Carolina at Chapel Hill, priority 2008, published 2015):

Columns and labels:
[1] = system: telomerized human diploid fibroblast (tHDF) cells (HS68); test: Cell proliferation assay (WST-1 or CellTiter-Glo) after chemotherapeutic; conditions: HS68, viability after 7 days; for chemoprotective effects against doxorubicin, carboplatin, etoposide (cell viability, CellTiter-Glo): 16 hour pretreatment, DOX 122 nM, Carbo 50 μM or Etop 2.5 μM 8 hours
Experimental: (§7) In some embodiments, cell viability is assessed by performing a assay using 2-(4-iodophenyl)-3-(4-nitrophenyl)-5-(2,4-disulfophenyl)-2H-tetrazolium monosodium salt (WST-1), such as described further hereinbelow. In the WST-1 assay, WST-1 is cleaved by a mitochondrial reductase present in viable cells to form a colored product (i.e., formazan) that can be detected by measuring absorbance at a particular wavelength (e.g., 420-480 nm). […] The CellTiter-Glo® assay (CTG assay; Promega, Madison, Wis., United States of America) measures cell viability by measuring ATP concentration in cell lysate.
(§8) Cell lines: Telomerized human diploid fibroblast (tHDF) cells (HS68) were cultured in Dulbecco's Modified Eagle Medium (DMEM) +10% fetal bovine serum (FBS) with any additional compounds. The same conditions were used for A2058 and WM2664, human melanoma cell lines with known RB-pathway mutations: A2058 is RB-null, whereas WM2664 lacks INK4a/ARF. Thus, A2058 cells are CDK4/6-independent, while WM2664 cells are CDK4/6-dependent. Cells were cultured in DMEM+10% FBS.
(§9) Cell proliferation assays: Cell proliferation assays were performed by seeding 1×10^3 cells per well in a 96-well tissue culture plate in 100 μL of growth medium. Cells were treated as indicated with compound from Table 1 and doxorubicin, etoposide or carboplatin. Following treatment, cells were allowed to recover for 7 days in normal growth medium. At the end of the recovery period, cell number was quantified using the VVST-1 cell proliferation assay (TaKaRa Bio USA, Madison, Wis., United States of America) or the CellTiter-Glo® assay (CTG; Promega, Madison, Wis., United States of America). Data is presented as absorbance at 450 nm for the WST assays or Relative Light Units (RLU) for the CTG assays.

[2] = system: human RB-null melanoma cells (A2058); test: as above
Experimental: as §7, §8, §9

[3] = system: human RB-null melanoma cells (A2058); test: Cell cycle analysis (BrdU and propidium iodide, flow cytometry); type: cell-based; conditions: A2058 (RB-null, CDK4/6-independent), 24 hours treatment
Experimental: (§1) Cells were cultured in DMEM+10% FBS.
(§2) Cell cycle analysis: Cell cycle analysis was performed using BrdU and propidium iodide (both from BD Biosciences Pharmigen, San Jose, Calif., United States of America) following the manufacturer's protocol. Cells were treated for 24 hours with a test compound at a desired dose prior to 15 minutes BrdU pulse, cell harvesting, fixation, staining, and analysis by flow cytometry.
(§3) Histograms of dose-response curves of PD332991 and 2BrIC in HS68, WM2664 and A2058 cells were analyzed using Mod-Fit™ software from Verity Software House (Topsham, Me., United States of America).

[4] = system: human melanoma cells lacking INK4a/ARF (WM2664); test: as above; type: cell-based; conditions: WM2664 (CDK4/6-dependent), 24 hours treatment
Experimental: as §1, §2, §3

[5] = system: telomerized human diploid fibroblast (tHDF) cells (HS68); test: as above; type: cell-based; conditions: HS68 (CDK4/6-dependent), 24 hours treatment
Experimental: as §1, §2, §3

[6] = system: telomerized human diploid fibroblast (tHDF) cells (HS68)
Experimental: as §7, §8, §9

[7] = system: human melanoma cells lacking INK4a/ARF (WM2664); test: Cell proliferation assay (WST-1 or CellTiter-Glo) after chemotherapeutic
Experimental: as §7, §8, §9

HS68 cells = test: TOXILIGHT assay (adenylate kinase release); type: cell-based, human; conditions: pretreatment, then Carbo 50 μM, DOX 122 nM or Etop 2.5 μM 8 hours
Experimental: (§4) Cellular cytotoxicity was assessed using the TOXILIGHT™ Bioassay kit (Lonza, Basel, Switzerland) which measures cytolysis by quantifying the release of adenylate kinase into the culture media. […] 100 μL of TOXILIGHT™ reagent is added and incubated for 5 minutes and read in a luminometer at 1 second/well.

[8] = system: human melanoma cells lacking INK4a/ARF (WM2664); test: γH2AX assay (DNA damage, flow cytometry); type: cell-based; conditions: 16 hours pretreatment, then 8 hours Carbo, Etop or Dox
Excerpt: (§5) Reduction in DNA damage effected by the test compound or maintenance of cell viability effected by the test compound in cells treated with cytotoxic compounds can be assessed in any suitable manner. For example, DNA damage in cell populations can be assessed by performing a gamma-H2AX assay as described further herein below. Mammalian cells respond to agents that introduce DNA double-stranded breaks with the immediate and substantial phosphorylation of histone H2AX. Thus, detection of the phosphorylated H2AX, termed gamma-H2AX (γH2AX), using commercially available antibodies, can serve as a measure of DNA damage in cells.
as §1
(§6) γH2AX assay: For γH2AX assay, cells were treated with a dose response of PD332991 or 2BrIC for 24 hours. Cells were fixed, permeabilized, and stained with anti-γH2AX antibody as per γH2AX Flow Kit (Millipore, Billerica, Mass., United States of America). γH2AX levels were assessed by flow cytometry.

[9] = system: telomerized human diploid fibroblast (tHDF) cells (HS68); test: γH2AX assay (DNA damage, flow cytometry); type: cell-based; conditions: 16 hours pretreatment, then 8 hours Carbo, Etop or Dox
Excerpt: as §5, §1, §6

[10] = system: human melanoma cells lacking INK4a/ARF (WM2664); test: TOXILIGHT assay (adenylate kinase release); type: cell-based; conditions: 16 hours treatment, then Carbo 50 μM, DOX 122 nM or Etop 2.5 μM 8 hours
Experimental: as §4

[11] = system: RB-null human melanoma cells (A2058); test: TOXILIGHT assay (adenylate kinase release); type: cell-based; conditions: 16 hours treatment, then Carbo 50 μM, DOX 122 nM or Etop 2.5 μM 8 hours
Experimental: as §4

CCC(CO)Nc1nc(NCc2ccccc2)c2ncn(C(C)C)c2n1 (stereo not shown) [Roscovitine]
chemoprotective effects against doxorubicin (cell viability, CellTiter-Glo) ([1]; 16 hours pretreatment, DOX 370 nM 8 hours): absence of chemoprotective effects | protection from chemotherapy-induced cytotoxicity (cell proliferation assays) ([2]; A2058 (CDK4/6-independent), pretreatment prior to carboplatin, etoposide or doxorubicin): failed to protect | chemoprotective effects against doxorubicin (cell viability, CellTiter-Glo) ([2]; A2058, 16 hours pretreatment, DOX 370 nM 8 hours, viability after 7 days): absence of chemoprotective effects | cell cycle effect [3]: did not induce a clean G1 arrest | cell cycle effect [4]: does not induce G1 arrest | cell cycle effect ([4]; listed as roscovitine): did not induce a clean G1 arrest | cell cycle effect [5]: does not induce G1 arrest | cell cycle effect ([5]; listed as roscovitine): did not induce a clean G1 arrest | protection from chemotherapy-induced cytotoxicity (cell proliferation assays) [6]: failed to protect | protection from chemotherapy-induced cytotoxicity (cell proliferation assays) ([7]; WM2664 (CDK4/6-dependent), pretreatment prior to carboplatin, etoposide or doxorubicin): failed to protect | chemoprotective effects against doxorubicin (cell viability, CellTiter-Glo) ([7]; WM2664, 16 hours pretreatment, DOX 122 nM 8 hours, viability after 7 days): absence of chemoprotective effects

CN[C@@H]1C[C@H]2O[C@@](C)([C@@H]1OC)n1c3ccccc3c3c4c(c5c6ccccc6n2c5c31)C(=O)NC4 [staurosporine]
chemoprotective effects against doxorubicin, carboplatin, etoposide (cell viability, CellTiter-Glo) [1]: does not provide protection | chemoprotective effects against doxorubicin, carboplatin, etoposide (cell viability, CellTiter-Glo) ([1]; listed as Staurosporine): does not appear to protect | cell cycle effect [5]: substantially pure G1 arrest | cell cycle effect ([5]; listed as Staurosporine): appears to induce G1 cell cycle arrest | effect on chemotherapy-induced cytotoxicity (adenylate kinase release) (HS68 cells): enhances chemotherapy-induced cytotoxicity in a cyclin-dependent kinase 4/6 (CDK4/6)-independent manner | protection from doxorubicin-, carboplatin- or etoposide-induced DNA damage (gamma-H2AX) [8]: does not protect | protection from doxorubicin-, carboplatin- or etoposide-induced DNA damage (gamma-H2AX) ([8]; listed as Staurosporine): does not appear to protect | protection from doxorubicin-, carboplatin- or etoposide-induced DNA damage (gamma-H2AX) [9]: does not protect | protection from doxorubicin-, carboplatin- or etoposide-induced DNA damage (gamma-H2AX) ([9]; listed as Staurosporine): does not appear to protect | effect on chemotherapy-induced cytotoxicity (adenylate kinase release) [10]: enhances chemotherapy-induced cytotoxicity in a cyclin-dependent kinase 4/6 (CDK4/6)-independent manner | effect on chemotherapy-induced cytotoxicity (adenylate kinase release) [11]: enhances chemotherapy-induced cytotoxicity in a cyclin-dependent kinase 4/6 (CDK4/6)-independent manner
